Measured values reported in patent US20210330611A1, “THERAPY FOR NEUROLOGICAL DISEASES/DISORDERS” (priority 2020, published 2021).
Read-outs that look alike come from different tables or passages of the source.

Columns and labels:
[1] = system: fibrin-induced microglia activation; experiment: Image-based assay of fibrin-induced microglia activation (HTS and dose response); assay type: cell-based, rat; conditions: for inhibition at 10 µM: Rattus norvegicus, Microglia, read-out: Fibrin % inhibition
[2] = system: LPS-induced microglia activation; experiment: Image-based assay of LPS-induced microglia activation (HTS and dose response); assay type: cell-based, rat; conditions: for inhibition at 10 µM: Rattus norvegicus, Microglia, read-out: LPS % inhibition
[3] = system: fibrin- and LPS-induced microglia activation; experiment: cells; assay type: cell-based, rat
[4] = system: primary rat microglia; experiment: Cell toxicity (dead cells, size <150 μm2) in LPS assay
[5] = system: primary rat microglia; experiment: Cell toxicity (dead cells, size <150 μm2) in coated fibrin (cFib) assay;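 note: share of dead cells sized under 150 µm2 at 10 µM in fibrin-stimulated microglia HTS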
[6] = primary HTS, 10 μM, fibrin-stimulated primary microglia
[7] = primary HTS, 10 μM, LPS-stimulated primary microglia
[8] = primary HTS, 10 μM, LPS assay, dead cells size <150 μm2
[9] = primary HTS, 10 μM, fibrin assay, dead cells size <150 μm2
[10] = primary microglia HTS, fibrin stimulation, increased cell size (>800 μm^2) as marker of activation
[11] = 48 h, primary microglia HTS, LPS stimulation, increased cell size (>800 μm^2) as marker of activation
[12] = quadrant by fibrin and LPS inhibition in HTS of 1907 compounds
[13] = primary microglia HTS, LPS stimulation, decreased size (<150 μm^2) as marker of toxicity
[14] = primary microglia HTS, fibrin stimulation, decreased size (<150 μm^2) as marker of toxicity
[15] = primary microglia HTS, 10 μM, fibrin-stimulated, cell size >800 μm^2 as marker of activation
[16] = primary microglia HTS, 10 μM, LPS-stimulated, cell size >800 μm^2 as marker of activation
[17] = HTS of 1907 compounds, quadrant by fibrin and LPS inhibition
[18] = primary microglia HTS, 10 μM, LPS assay, cell size <150 μm^2 as marker of toxicity
[19] = primary microglia HTS, 10 μM, fibrin assay, cell size <150 μm^2 as marker of toxicity
[20] = primary microglia HTS, fibrin stimulation, activation = cell size >800 μm2
[21] = 48 h, primary microglia HTS, LPS stimulation, activation = cell size >800 μm2
[22] = primary microglia HTS, LPS stimulation, toxicity = cell size <150 μm2
[23] = primary microglia HTS, fibrin stimulation, toxicity = cell size <150 μm2

Question: How did the inhibition at 10 µM [1, 6] turn out when Nc1nc(/C(=C/CC(=O)O)C(=O)N[C@@H]2C(=O)N3C(C(=O)O)=CCS[C@H]23)cs1 [Ceftibuten] was run?
Answer: -7%

Question: And the inhibition at 10 µM [2, 7]?
Answer: 12%

Question: And the “Quadrant (FIG. 5b)” value ([3]; primary HTS, 10 μM)?
Answer: Q4

Question: What about the “LPS % cell toxicity” value [4, 8] of the same compound?
Answer: 0%

Question: What about the “Fibrin % cell toxicity” value [5, 9] of the same compound?
Answer: 1%

Question: With CCc1nn(CCCN2CCN(c3cccc(Cl)c3)CC2)c(=O)n1CCOc1ccccc1 [Nefazodone] as the compound, how does the inhibition at 10 µM [1, 10] read?
Answer: -37%

Question: What about the inhibition at 10 µM [2, 11] of the same compound?
Answer: 3%

Question: What about the “Quadrant (FIG. 5b)” value [3, 12] of the same compound?
Answer: Q4

Question: What about the “LPS % cell toxicity” value [4, 13] of the same compound?
Answer: 0%

Question: And the “Fibrin % cell toxicity” value [5, 14]?
Answer: 0%

Question: What does the source list for CCCCC[C@H](O)/C=C/[C@H]1[C@H](O)CC(=O)[C@@H]1C/C=C\CCCC(=O)O [Dinoprostone]?
Answer: inhibition at 10 µM [1, 10]: 102%; inhibition at 10 µM [2, 11]: 85%; Quadrant (FIG. 5b) [3, 12]: Q2; LPS % cell toxicity [4, 13]: 2%; Fibrin % cell toxicity [5, 14]: 9%

Question: With Oc1ccc(Cl)c2cccnc12 [Cloxyquin] as the compound, how does the inhibition at 10 µM [1, 6] read?
Answer: -4%

Question: What about the inhibition at 10 µM [2, 7] of the same compound?
Answer: 18%

Question: And the “Quadrant (FIG. 5b)” value ([3]; primary HTS, 10 μM)?
Answer: Q4

Question: What about the “LPS % cell toxicity” value [4, 8] of the same compound?
Answer: 0%

Question: What about the “Fibrin % cell toxicity” value [5, 9] of the same compound?
Answer: 0%

Question: Which results are given for CCOC(=O)C(C)(C)Oc1ccc(Cl)cc1 [Clofibrate]?
Answer: inhibition at 10 µM [1, 6]: -20%; inhibition at 10 µM [2, 7]: 18%; Quadrant (FIG. 5b) ([3]; primary HTS, 10 μM): Q4; LPS % cell toxicity [4, 8]: 1%; Fibrin % cell toxicity [5, 9]: 0%

Question: CC(C)C[C@H](NC(=O)[C@@H](Cc1c[nH]c2ccccc12)NC(=O)[C@H](Cc1ccc(O)cc1)NC(=O)[C@H](CO)NC(=O)[C@H](Cc1c[nH]c2ccccc12)NC(=O)[C@H](Cc1c[nH]cn1)NC(=O)[C@@H]1CCC(=O)N1)C(=O)N[C@@H](CCCNC(=N)N)C(=O)N1CCC[C@H]1C(=O)NCC(N)=O [Triptorelin] was tested. Which Fibrin % inhibition [1, 15] did it give?
Answer: −15%

Question: And the LPS % inhibition [2, 16]?
Answer: 4%

Question: And the “Quadrant (FIG. 5b)” value [3, 17]?
Answer: Q4

Question: What about the “LPS % cell toxicity” value [4, 18] of the same compound?
Answer: 0%

Question: What about the “Fibrin % cell toxicity” value [5, 19] of the same compound?
Answer: 1%

Question: CC(=O)OCC(=O)[C@@]12OC3(CCCC3)O[C@@H]1C[C@H]1[C@@H]3CCC4=CC(=O)C=C[C@]4(C)[C@@]3(F)[C@@H](O)C[C@@]12C [Amcinonide] was tested. Which inhibition at 10 µM [1, 10] did it give?
Answer: 112%

Question: What about the inhibition at 10 µM [2, 11] of the same compound?
Answer: 119%

Question: What about the “Quadrant (FIG. 5b)” value [3, 12] of the same compound?
Answer: Q2

Question: What about the “LPS % cell toxicity” value [4, 13] of the same compound?
Answer: 6%

Question: And the “Fibrin % cell toxicity” value [5, 14]?
Answer: 7%

Question: With C[C@H](O)C(=O)Nc1c(I)c(C(=O)NC(CO)CO)c(I)c(C(=O)NC(CO)CO)c1I [Iopamidol] as the compound, how does the inhibition at 10 µM [1, 20] read?
Answer: -14%

Question: And the inhibition at 10 µM [2, 21]?
Answer: -4%

Question: What about the “Quadrant (FIG. 5b)” value [3, 12] of the same compound?
Answer: Q4

Question: And the “LPS % cell toxicity” value [4, 22]?
Answer: 0%

Question: And the “Fibrin % cell toxicity” value [5, 23]?
Answer: 1%

Question: What does the source list for C[C@@H]1C/C=C/C=C/C=C/C=C/[C@H](O[C@@H]2O[C@H](C)[C@@H](O)[C@H](N)[C@@H]2O)C[C@@H]2O[C@](O)(C[C@@H](O)C[C@H]3O[C@@H]3/C=C/C(=O)O1)C[C@H](O)[C@H]2C(=O)O [Natamycin]?
Answer: inhibition at 10 µM [1, 10]: -7%; inhibition at 10 µM [2, 11]: 35%; Quadrant (FIG. 5b) [3, 12]: Q4; LPS % cell toxicity [4, 13]: 0%; Fibrin % cell toxicity [5, 14]: 1%

Question: What does the source list for O=[N+]([O-])c1ccc(O)c2ncccc12 [Nitroxoline]?
Answer: inhibition at 10 µM [1, 10]: -5%; inhibition at 10 µM [2, 11]: -6%; Quadrant (FIG. 5b) [3, 12]: Q4; LPS % cell toxicity [4, 13]: 0%; Fibrin % cell toxicity [5, 14]: 1%

Question: How did the inhibition at 10 µM [1, 15] turn out when Cc1cccc(C)c1NC(=O)C(C)N (stereo not drawn) [Tocainide] was run?
Answer: -25%

Question: And the inhibition at 10 µM [2, 16]?
Answer: 0%

Question: What about the “Quadrant (FIG. 5b)” value [3, 17] of the same compound?
Answer: Q4

Question: And the “LPS % cell toxicity” value [4, 18]?
Answer: 0%

Question: And the “Fibrin % cell toxicity” value [5, 19]?
Answer: 1%

Question: With C=C1c2cccc(O)c2C(=O)C2=C(O)[C@]3(O)C(=O)C(C(N)=O)=C(O)[C@@H](N(C)C)[C@@H]3[C@@H](O)[C@H]12 [Methacycline] as the compound, how does the inhibition at 10 µM [1, 10] read?
Answer: -10%

Question: And the inhibition at 10 µM [2, 11]?
Answer: 11%

Question: And the “Quadrant (FIG. 5b)” value [3, 12]?
Answer: Q4

Question: And the “LPS % cell toxicity” value [4, 13]?
Answer: 0%

Question: What about the “Fibrin % cell toxicity” value [5, 14] of the same compound?
Answer: 0%

Question: With O=C1/C(=C/c2cccs2)CCC/C1=C\c1cccs1 [Tenylidone] as the compound, how does the inhibition at 10 µM [1, 15] read?
Answer: -9%

Question: What about the inhibition at 10 µM [2, 16] of the same compound?
Answer: 15%

Question: And the “Quadrant (FIG. 5b)” value [3, 17]?
Answer: Q4

Question: What about the “LPS % cell toxicity” value [4, 18] of the same compound?
Answer: 0%

Question: What about the “Fibrin % cell toxicity” value [5, 19] of the same compound?
Answer: 1%

Question: Which results are given for C[C@@H]1CN(c2c(F)c(F)c3c(=O)c(C(=O)O)cn(C4CC4)c3c2F)C[C@H](C)N1 [Orbifloxacin]?
Answer: inhibition at 10 µM [1, 10]: -18%; inhibition at 10 µM [2, 11]: 15%; Quadrant (FIG. 5b) [3, 12]: Q4; LPS % cell toxicity [4, 13]: 0%; Fibrin % cell toxicity [5, 14]: 0%

Question: CCCCN1CCCC[C@H]1C(=O)Nc1c(C)cccc1C [Levobupivacaine] was tested. Which inhibition at 10 µM [1, 20] did it give?
Answer: 34%

Question: What about the inhibition at 10 µM [2, 21] of the same compound?
Answer: -10%

Question: And the “Quadrant (FIG. 5b)” value [3, 12]?
Answer: Q4

Question: What about the “LPS % cell toxicity” value [4, 22] of the same compound?
Answer: 0%

Question: What about the “Fibrin % cell toxicity” value [5, 23] of the same compound?
Answer: 1%
